Experimental data taken from patent US4733003A, “Octahydronaphthalene derivatives and their preparation” (Sankyo Company Limited, priority 1981, dated 1988).

Test system: cholesterol biosynthesis
Test: inhibition of cholesterol biosynthesis (method of J. Biol. Chem. 234, 2835 (1959))
Assay type: biochemical
Conditions: method of Journal of Biological Chemistry, 234, 2835 (1959)
Text: The compounds of the invention in which R^1 and R^2 both represent oxygen atoms are, as already described, valuable intermediates for the synthesis of the active compounds. The inhibitory activities of certain of the compounds of the invention, in terms of the concentration in ng/ml required to inhibit colesterol biosynthesis by 50% [measured by the method described in the Journal of Biological Chemistry, 234, 2835 (1959)], are as follows (for comparison, the value for ML-236B lactone is also given): […]

Structure (SMILES) | concentration required to inhibit colesterol biosynthesis by 50%
CCC(C)C(=O)OC1CCC(=NO)C2=CC(=NO)C(C)C(CCC3CC(O)CC(=O)O3)C21 (single isomer, unassigned) [isomer a (Example 3), 3,4-Dihydro-4,6-bis(hydroxyimino)IsoML-236B lactone] | 4.5 ng/mL
CCC(C)C(=O)OC1CCC(=NO)C2=CC(=NO)C(C)C(CCC3CC(O)CC(=O)O3)C21 (single isomer, unassigned) [isomer b (Example 3), 3,4-Dihydro-4,6-bis(hydroxyimino)IsoML-236B lactone] | 4.3 ng/mL
CC1C(=O)C=C2C(=NO)CCC(O)C2C1CCC1CC(O)CC(=O)O1 (centres unmarked) [3,4-Dihydro-6-oxo-4-hydroxyiminoIsoML-236A lactone] | 0.9 ng/mL
CCC(C)C(=O)OC1CCC(=NO)C2=CC(=O)C(C)C(CCC3CC(O)CC(=O)O3)C21 (centres unmarked) [3,4-Dihydro-6-oxo-4-hydroxyiminoIsoML-236B lactone] | 0.3 ng/mL
CCC(C)C(=O)OC1CCC(=NOC)C2=CC(=O)C(C)C(CCC3CC(O)CC(=O)O3)C21 (centres unmarked) [3,4-Dihydro-6-oxo-4-methoxyiminoIsoML-236B lactone] | 0.6 ng/mL
CCC(C)C(=O)OC1CCC=C2C=CC(C)C(CCC3CC(O)CC(=O)O3)C21 (centres unmarked) [ML-236B lactone, reference compound] | 10 ng/mL
CCC(C)C(=O)OC1CCC(=NO)C2=CC(=O)C(C)C(CCC(O)CC(O)CC(=O)O)C21 (centres unmarked) [disodium 3,4-dihydro-6-oxo-4-oxidoiminoIsoML-236B carboxylat] [Disodium 3,4-dihydro-6-oxo-4-oxidoiminoIsoML-236B carboxylate] | 0.4 ng/mL
CCC(C)C(=O)OC1CCC(=NO)C2=CC(=O)C(C)C(CCC(O)CC(O)CC(=O)O)C21 (centres unmarked) [sodium 3,4-dihydro-6-oxo-4-hydroxyiminoIsoML-236B carboxylat] [Sodium 3,4-dihydro-6-oxo-4-hydroxyiminoIsoML-236B carboxylate] | 0.3 ng/mL
